{"source": "paper PMC7561186", "about": "“Rational design of balanced dual-targeting antibiotics with limited resistance” (PLoS Biology, 2020)", "test_system": "S. aureus clinical isolates", "assay": "microbe, parasite or virus in culture", "assay_type": "cell-based", "note": "Like-named read-outs stand apart in the source and are kept apart here.", "data": [{"smiles": "Cc1[nH]c(C(=O)Nc2nc3ccc(C(=O)O)cc3s2)c(Cl)c1Cl", "note": "[ULD1]", "values": [{"measurement": "MIC", "setting": "S. aureus ATCC 29213, MSSA / VSSA, test date 2018-10-25 (three repeat lines)", "result": 1, "unit": "µg/mL"}, {"measurement": "MIC", "setting": "Staphylococcus aureus, ATCC 29213 / MSSA, S. aureus ATCC 29213, MSSA / VSSA, test date 2018-10-25 (three repeat lines), read-out: MIC", "result": 0.5, "unit": "µg/mL"}, {"measurement": "MIC", "setting": "Staphylococcus aureus, ATCC 29213 / MSSA, S. aureus ATCC 29213, MSSA / VSSA, test date 2018-11-07, read-out: MIC", "result": 0.25, "unit": "µg/mL"}, {"measurement": "MIC", "setting": "Staphylococcus aureus, MRSA / NRS 3 / VISA, S. aureus IHMA 1308243, NRS3, MRSA / VISA, read-out: MIC", "result": 1, "unit": "µg/mL"}, {"measurement": "MIC", "setting": "Staphylococcus aureus, MRSA / NRS 4 / VISA, S. aureus IHMA 649380, NRS4, MRSA / VISA, read-out: MIC", "result": 0.5, "unit": "µg/mL"}, {"measurement": "MIC", "setting": "Staphylococcus aureus, MRSA / NRS 18 / VISA, S. aureus IHMA 649386, NRS18, MRSA / VISA, read-out: MIC", "result": 0.5, "unit": "µg/mL"}, {"measurement": "MIC", "setting": "Staphylococcus aureus, MRSA / NRS 19 / VISA, S. aureus IHMA 649387, NRS19, MRSA / VISA, read-out: MIC", "result": 0.5, "unit": "µg/mL"}, {"measurement": "MIC", "setting": "Staphylococcus aureus, MRSA / NRS 21 / VISA, S. aureus IHMA 649388, NRS21, MRSA / VISA, read-out: MIC", "result": 1, "unit": "µg/mL"}, {"measurement": "MIC", "setting": "Staphylococcus aureus, MRSA / NRS 22 / USA600 / VISA, S. aureus IHMA 649389, NRS22, MRSA / VISA, USA600, read-out: MIC", "result": 0.5, "unit": "µg/mL"}, {"measurement": "MIC", "setting": "Staphylococcus aureus, MRSA / NRS 23 / VISA, S. aureus IHMA 649390, NRS23, MRSA / VISA, read-out: MIC", "result": 0.5, "unit": "µg/mL"}, {"measurement": "MIC", "setting": "Staphylococcus aureus, MRSA / NRS 24 / VISA, S. aureus IHMA 649391, NRS24, MRSA / VISA, read-out: MIC", "result": 0.5, "unit": "µg/mL"}, {"measurement": "MIC", "setting": "Staphylococcus aureus, MRSA / NRS 26, S. aureus IHMA 649392, NRS26, MRSA / VSSA, read-out: MIC", "result": 0.5, "unit": "µg/mL"}, {"measurement": "MIC", "setting": "Staphylococcus aureus, MRSA / NRS 27 / VISA, S. aureus IHMA 1308248, NRS27, MRSA / VISA, read-out: MIC", "result": 1, "unit": "µg/mL"}, {"measurement": "MIC", "setting": "Staphylococcus aureus, MRSA / NRS 29 / VISA, S. aureus IHMA 1308250, NRS29, MRSA / VISA, read-out: MIC", "result": 0.5, "unit": "µg/mL"}, {"measurement": "MIC", "setting": "Staphylococcus aureus, MRSA / NRS 37 / VISA, S. aureus IHMA 1308251, NRS37, MRSA / VISA, read-out: MIC", "result": 0.5, "unit": "µg/mL"}, {"measurement": "MIC", "setting": "Staphylococcus aureus, MRSA / NRS 54, S. aureus IHMA 1308253, NRS54, MRSA / VSSA* (*Expected VAN intermediate, confirmed VAN susceptible twice), test date 2018-11-07, read-out: MIC", "result": 0.25, "unit": "µg/mL"}, {"measurement": "MIC", "setting": "Staphylococcus aureus, MRSA / NRS 56 / VISA, S. aureus IHMA 1308254, NRS56, MRSA / VISA, read-out: MIC", "result": 0.5, "unit": "µg/mL"}, {"measurement": "MIC", "setting": "Staphylococcus aureus, MRSA / USA100 / VRSA, S. aureus IHMA 672230, VRS1, MRSA / VRSA, USA100, read-out: MIC", "result": 0.5, "unit": "µg/mL"}, {"measurement": "MIC", "setting": "Staphylococcus aureus, MRSA / USA100 / VRSA, S. aureus IHMA 672231, VRS2, MRSA / VRSA, USA100, read-out: MIC", "result": 0.5, "unit": "µg/mL"}, {"measurement": "MIC", "setting": "Staphylococcus aureus, MRSA / USA100 / VRSA, S. aureus IHMA 672234, VRS4, MRSA / VRSA, USA100, read-out: MIC", "result": 0.5, "unit": "µg/mL"}, {"measurement": "MIC", "setting": "Staphylococcus aureus, MRSA / USA100 / VRSA, S. aureus IHMA 672235, VRS5, MRSA / VRSA, USA100, read-out: MIC", "result": 1, "unit": "µg/mL"}, {"measurement": "MIC", "setting": "Staphylococcus aureus, MRSA / USA100 / VRSA, S. aureus IHMA 672237, VRS7, MRSA / VRSA, USA100, read-out: MIC", "result": 0.5, "unit": "µg/mL"}, {"measurement": "MIC", "setting": "Staphylococcus aureus, MRSA / USA100 / VRSA, S. aureus IHMA 672238, VRS8, MRSA / VRSA, USA100, read-out: MIC", "result": 0.5, "unit": "µg/mL"}, {"measurement": "MIC", "setting": "Staphylococcus aureus, MRSA / USA100 / VRSA, S. aureus IHMA 672239, VRS9, MRSA / VRSA, USA100, read-out: MIC", "result": 0.5, "unit": "µg/mL"}, {"measurement": "MIC", "setting": "Staphylococcus aureus, MRSA / USA100 / VRSA, S. aureus IHMA 1308256, VRS10, MRSA / VRSA, USA100, read-out: MIC", "result": 1, "unit": "µg/mL"}, {"measurement": "MIC", "setting": "Staphylococcus aureus, MRSA / USA100 / VRSA, S. aureus IHMA 1308258, VRS11b, MRSA / VRSA, USA100, read-out: MIC", "result": 0.5, "unit": "µg/mL"}, {"measurement": "MIC", "setting": "Staphylococcus aureus, MRSA / USA800 / VRSA, S. aureus IHMA 672233, VRS3b, MRSA / VRSA, USA800, read-out: MIC", "result": 0.25, "unit": "µg/mL"}, {"measurement": "MIC", "setting": "Staphylococcus aureus, MRSA / VISA / VRSA, all isolates of the panel (MRSA, VISA, VRSA), read-out: MIC against all tested S. aureus clinical isolates", "result": "≤ 1", "unit": "µg/mL"}, {"measurement": "MIC", "setting": "Staphylococcus aureus, MRSA, S. aureus IHMA 1569509, MRSA / VSSA, read-out: MIC", "result": 0.25, "unit": "µg/mL"}, {"measurement": "MIC", "setting": "Staphylococcus aureus, MRSA, S. aureus IHMA 1575268, MRSA / VSSA, read-out: MIC", "result": 1, "unit": "µg/mL"}, {"measurement": "MIC", "setting": "Staphylococcus aureus, MRSA, S. aureus IHMA 1575629, MRSA / VSSA, read-out: MIC", "result": 0.5, "unit": "µg/mL"}, {"measurement": "MIC", "setting": "Staphylococcus aureus, MRSA, S. aureus IHMA 1577820, MRSA / VSSA, read-out: MIC", "result": 1, "unit": "µg/mL"}, {"measurement": "MIC", "setting": "Staphylococcus aureus, MRSA, S. aureus IHMA 1580300, MRSA / VSSA, read-out: MIC", "result": 0.5, "unit": "µg/mL"}, {"measurement": "MIC", "setting": "Staphylococcus aureus, MRSA, S. aureus IHMA 1580940, MRSA / VSSA, read-out: MIC", "result": 0.5, "unit": "µg/mL"}, {"measurement": "MIC", "setting": "Staphylococcus aureus, MRSA, S. aureus IHMA 1582100, MRSA / VSSA, read-out: MIC", "result": 0.5, "unit": "µg/mL"}, {"measurement": "MIC", "setting": "Staphylococcus aureus, MRSA, S. aureus IHMA 1583795, MRSA / VSSA, read-out: MIC", "result": 1, "unit": "µg/mL"}, {"measurement": "MIC", "setting": "Staphylococcus aureus, MRSA, S. aureus IHMA 1584223, MRSA / VSSA, read-out: MIC", "result": 1, "unit": "µg/mL"}, {"measurement": "MIC", "setting": "Staphylococcus aureus, MRSA, S. aureus IHMA 1585316, MRSA / VSSA, read-out: MIC", "result": 0.25, "unit": "µg/mL"}, {"measurement": "MIC", "setting": "Staphylococcus aureus, MRSA, S. aureus IHMA 1586780, MRSA / VSSA, read-out: MIC", "result": 0.5, "unit": "µg/mL"}, {"measurement": "MIC", "setting": "Staphylococcus aureus, MRSA, S. aureus IHMA 1587322, MRSA / VSSA, read-out: MIC", "result": 0.5, "unit": "µg/mL"}, {"measurement": "MIC", "setting": "Staphylococcus aureus, MRSA, S. aureus IHMA 1588127, MRSA / VSSA, read-out: MIC", "result": 0.5, "unit": "µg/mL"}, {"measurement": "MIC", "setting": "Staphylococcus aureus, MRSA, S. aureus IHMA 1591462, MRSA / VSSA, read-out: MIC", "result": 0.25, "unit": "µg/mL"}, {"measurement": "MIC", "setting": "Staphylococcus aureus, MRSA, S. aureus IHMA 1592755, MRSA / VSSA, read-out: MIC", "result": 0.5, "unit": "µg/mL"}, {"measurement": "MIC", "setting": "Staphylococcus aureus, MRSA, S. aureus IHMA 1592776, MRSA / VSSA, read-out: MIC", "result": 0.5, "unit": "µg/mL"}, {"measurement": "MIC", "setting": "Staphylococcus aureus, MRSA, S. aureus IHMA 1597106, MRSA / VSSA, read-out: MIC", "result": 1, "unit": "µg/mL"}, {"measurement": "MIC", "setting": "Staphylococcus aureus, MRSA, S. aureus IHMA 1602095, MRSA / VSSA, read-out: MIC", "result": 0.5, "unit": "µg/mL"}, {"measurement": "MIC", "setting": "Staphylococcus aureus, MRSA, S. aureus IHMA 1611170, MRSA / VSSA, read-out: MIC", "result": 0.5, "unit": "µg/mL"}, {"measurement": "MIC", "setting": "Staphylococcus aureus, MRSA, S. aureus IHMA 1611612, MRSA / VSSA, read-out: MIC", "result": 0.5, "unit": "µg/mL"}, {"measurement": "MIC", "setting": "Staphylococcus aureus, MRSA, S. aureus IHMA 1612228, MRSA / VSSA, read-out: MIC", "result": 0.5, "unit": "µg/mL"}, {"measurement": "MIC", "setting": "Staphylococcus aureus, MRSA, S. aureus IHMA 1620441, MRSA / VSSA, read-out: MIC", "result": 0.5, "unit": "µg/mL"}, {"measurement": "MIC", "setting": "Staphylococcus aureus, MRSA, S. aureus IHMA 1621638, MRSA / VSSA, read-out: MIC", "result": 1, "unit": "µg/mL"}, {"measurement": "MIC", "setting": "Staphylococcus aureus, MRSA, S. aureus IHMA 1622252, MRSA / VSSA, read-out: MIC", "result": 1, "unit": "µg/mL"}, {"measurement": "MIC", "setting": "Staphylococcus aureus, MRSA, S. aureus IHMA 1622527, MRSA / VSSA, read-out: MIC", "result": 0.25, "unit": "µg/mL"}, {"measurement": "MIC", "setting": "Staphylococcus aureus, MRSA, S. aureus IHMA 1666371, MRSA / VSSA, read-out: MIC", "result": 0.5, "unit": "µg/mL"}, {"measurement": "MIC", "setting": "Staphylococcus aureus, MRSA, S. aureus IHMA 1695391, MRSA / VSSA, read-out: MIC", "result": 0.25, "unit": "µg/mL"}, {"measurement": "MIC", "setting": "Staphylococcus aureus, MRSA, S. aureus IHMA 1703428, MRSA / VSSA, read-out: MIC", "result": 1, "unit": "µg/mL"}, {"measurement": "MIC", "setting": "Staphylococcus aureus, MRSA, S. aureus IHMA 1720350, MRSA / VSSA, read-out: MIC", "result": 1, "unit": "µg/mL"}, {"measurement": "MIC", "setting": "Staphylococcus aureus, MRSA, S. aureus IHMA 1732989, MRSA / VSSA, read-out: MIC", "result": 1, "unit": "µg/mL"}, {"measurement": "MIC", "setting": "Staphylococcus aureus, MRSA, S. aureus IHMA 1742231, MRSA / VSSA, read-out: MIC", "result": 0.5, "unit": "µg/mL"}, {"measurement": "MIC", "setting": "Staphylococcus aureus, MRSA, S. aureus IHMA 1766357, MRSA / VSSA, read-out: MIC", "result": 0.25, "unit": "µg/mL"}, {"measurement": "MIC", "setting": "Staphylococcus aureus, MSSA / NRS 12 / VISA, S. aureus IHMA 1308244, NRS12, MSSA / VISA, read-out: MIC", "result": 1, "unit": "µg/mL"}, {"measurement": "MIC", "setting": "Staphylococcus aureus, MSSA / NRS 13 / VISA, S. aureus IHMA 1308245, NRS13, MSSA / VISA, read-out: MIC", "result": 1, "unit": "µg/mL"}, {"measurement": "MIC", "setting": "Staphylococcus aureus, MSSA / NRS 14 / VISA, S. aureus IHMA 1308246, NRS14, MSSA / VISA, read-out: MIC", "result": 1, "unit": "µg/mL"}]}]}
